Results on 22 compounds are retold here after PubChem BioAssay (NCI).

Common to all, as to assay: NCI-60 cell line screen, 48 h
In experiment [1] the test system is HCT-116 colon.
In experiment [2] the test system is K-562 leukemia.
In experiment [3] the test system is MDA-N.
In experiment [4] the test system is NCI-H23 lung.
Experiment [5] deals with SF-539 CNS.
Experiment [6] concerns SK-MEL-2 melanoma.
Experiment [7] has as its system SK-MEL-28 melanoma.
Experiment [8] concerns SW-620 colon.
The test system of experiment [9] is TK-10 renal.
The subject of experiment [10] is UACC-257 melanoma.

Where “and” joins values, the source holds several entries; their conditions need not be identical. Equal values may be shown once.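 Results reflect a 48-hour exposure of cells in 96-well plates to compound at five concentrations. GI50 marks 50% less growth. The concentration for full growth arrest is given as TGI.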

Turning to `CC(C)c1cc(C(C)C)c(B(c2ccccc2)c2ccccc2)c(C(C)C)c1Br`, the TGI in [1], in experiment [2], in experiment [3], in experiment [4], in experiment [5] and in experiment [6] was over 100 µM each time. The TGI in experiment [7], in experiment [8], in [9] and in experiment [10] was over 100 µM in each case.

On to `Cc1cc(=O)oc2c(CN(CCCl)CCCl)c(O)ccc12`, for which the TGI in experiment [1], in experiment [2], in experiment [3], in experiment [4], in [5] and in [6] was over 100 µM in each case. For the same compound, the TGI in experiment [7], in experiment [8] and in experiment [10] was over 100 µM throughout.

On to `O=C(OCC(OC(=O)c1ccccc1)C1CC(C(O)C2CCCCC2)C(=O)O1)c1ccccc1` (stereo not given), for which the TGI was over 100 µM in experiment [1]; 50.5 µM in [2]; over 100 µM in experiment [3]; over 100 µM in experiment [4]; 66.1 µM in [5]; over 100 µM in experiment [6]. Moreover, the TGI in experiment [8], in experiment [9] and in experiment [10] was over 100 µM in each case.

Take `O=C1CSC2=NC3=C(COC/C3=C\c3ccc(F)cc3)C(c3ccc(F)cc3)N12` (stereo not given): the TGI in [1], in [2], in experiment [3], in experiment [4], in [5] and in experiment [6] was over 100 µM each time. The TGI in experiment [8], in experiment [9] and in [10] was over 100 µM in each case.

Regarding `CC1CN=C(N(C(=O)Nc2ccccc2)C2CCCCC2)S1` (stereo not given), the TGI in experiment [1] was 33.1 µM; in experiment [2], 73.2 µM; in [3], 30.1 µM; in experiment [4], 33.8 µM; in experiment [5], 43.2 µM; in [6] it was 29.5 µM. For the same compound, the TGI is 28.2 µM in experiment [7], 28.5 µM in experiment [8], 37 µM in experiment [9] and 30.2 µM in [10].

As for `COc1ccc(C2CCc3c(cnc4nc(N)nc(N)c34)C2)cc1` (stereo not given), the TGI in experiment [1], in experiment [2], in experiment [3], in experiment [5], in experiment [6] and in [7] was over 100 µM each time. Further, the TGI in experiment [8] was over 100 µM; in experiment [9], 36 µM; in experiment [10], over 100 µM.

On to `O=c1[nH]c(=O)c2c([nH]1)[nH]c1ccccc12`, for which the TGI in experiment [1], in [2], in experiment [3], in experiment [4], in [5] and in experiment [6] was over 100 µM each time. Moreover, the TGI in experiment [8], in experiment [9] and in [10] was over 100 µM in each case.

`CC1=CCC(=O)[C@]2(C)C(CC(=O)O)[C@]3(C)C4=C(C)C(c5ccoc5)C[C@@H]4O[C@@H]3[C@H](O)[C@@H]12` (stereo not given in full): the TGI in experiment [1], in experiment [3], in experiment [4], in [5], in experiment [6] and in experiment [7] was over 100 µM throughout. In addition, the TGI in [8], in [9] and in experiment [10] was over 100 µM each time.

Regarding `Oc1[nH]c2ccccc2c1N=NC(=S)NCc1ccccn1`, the TGI in experiment [1] is 15.1 µM; in experiment [3] it was 19.9 µM; in experiment [4], 14.9 µM; in experiment [5], 5.06 µM; in experiment [6] it was 28.7 µM; in experiment [7] it was 21.5 µM. For the same compound, the TGI in [8] was determined as 22.3 µM; in experiment [9], 18.3 µM; in experiment [10], 13.7 µM.

Turning to `c1ccc(C2C3=C(CCCC3)Nc3nnnn32)cc1` (stereo not given), the TGI in [1], in experiment [2], in [3], in experiment [4], in experiment [5] and in experiment [6] was over 100 µM each time. For the same compound, the TGI in [8] and in experiment [10] was over 100 µM throughout.

For `NC(=O)c1nnc2c(F)cccc2c1N`, the TGI in experiment [1], in experiment [2], in experiment [3], in experiment [4], in [5] and in [6] was over 100 µM each time. In addition, the TGI in [8], in experiment [9] and in experiment [10] was over 100 µM in each case.

For the compound `Cn1c(-c2cccs2)cc(-c2ccsc2)c1-c1ccsc1`, the TGI in experiment [1], in [2], in experiment [3], in experiment [4], in experiment [5] and in experiment [7] was over 100 µM each time. Also, the TGI in experiment [8], in experiment [9] and in [10] was over 100 µM throughout.

As for `C(=N\Nc1nnc(-c2nnc(N/N=C/c3ccccc3)o2)o1)/c1ccccc1`, the TGI in experiment [1], in experiment [2], in experiment [3], in experiment [4], in experiment [5] and in [7] was over 10 µM in each case. For the same compound, the TGI in experiment [8], in [9] and in [10] was over 10 µM in each case.

For the compound `O=C1/C(=C/Cc2ccco2)N=C(c2ccccc2)N1c1nc2c(Cl)cc(Cl)cc2s1`, the TGI in [1] is 81.2 µM; in experiment [2], over 100 µM; in experiment [3], 47.9 µM; in experiment [5], 61.3 µM; in experiment [6], 63.5 µM; in experiment [7] it was over 100 µM. For the same compound, the TGI in [8], in experiment [9] and in [10] was over 100 µM in each case.

Take `Cc1nc(C)c(C(=O)NNC(=O)c2ccccc2)cc1C(=O)NNC(=O)c1ccccc1`: the TGI in experiment [1], in [2], in experiment [3], in experiment [4], in experiment [5] and in [6] was over 100 µM throughout. Also, the TGI in [8], in experiment [9] and in [10] was over 100 µM in each case.

As to `Fc1sc2c(c1F)C1CCC2C1` (stereo not given), the TGI in experiment [1], in experiment [3], in experiment [4], in experiment [5], in [6] and in experiment [7] was over 100 µM in each case. In addition, the TGI in experiment [8], in experiment [9] and in [10] was over 100 µM throughout.

For the compound `COC1OC(=O)C(OC)C(OC)C1OC` (stereo not given), the TGI in experiment [1], in experiment [2], in experiment [3], in [5], in experiment [6] and in experiment [7] was over 100 µM throughout. Moreover, the TGI in experiment [8], in [9] and in experiment [10] was over 100 µM throughout.

With `Nc1nn2cc(-c3ccccc3)[n+](CC(=O)c3ccccc3)c2s1`, the TGI in experiment [1] is 30.3 µM; in [2], 66.7 µM; in [3], over 100 µM; in [4], 51.6 µM; in experiment [5], 42.3 µM; in [6], 30.4 µM. Also, the values for the TGI in [8], in experiment [9] and in experiment [10] were 55.9 µM, over 100 µM and 70.5 µM, respectively.

For `COc1ccc(Cn2nc(OCc3ccccc3)c3cc([N+](=O)[O-])ccc32)cc1`, the TGI in experiment [2], in [3], in experiment [4], in experiment [5], in experiment [6] and in experiment [7] was over 100 µM throughout. In addition, the TGI in [8], in experiment [9] and in experiment [10] was over 100 µM throughout.

For the compound `CC(=O)OC1COC(n2c(N)c(C#N)c(-c3ccccc3)c(C#N)c2=S)C(OC(C)=O)C1OC(C)=O` (stereo not given), the TGI in experiment [1] is over 100 µM; in [3], 88.2 µM and 88.3 µM; in experiment [4] it was over 100 µM; in [5], over 100 µM; in experiment [6] it was > 100 µM and 68.4 µM; in experiment [7], over 100 µM. For the same compound, the TGI in experiment [8] was over 100 µM; in experiment [9], 94 µM; in experiment [10] it was over 100 µM. Moreover, the GI50 in [4] was 33.1 µM and 73.2 µM.

With `COc1nc2ncc([C@@H](O)[C@H](O)CO)nc2c(=O)[nH]1`, the TGI in experiment [1], in experiment [2], in experiment [3], in [5], in experiment [6] and in [7] was over 100 µM throughout. The TGI in [8], in experiment [9] and in experiment [10] was over 100 µM in each case.

Regarding `N#Cc1c(NC(=S)Nc2ccccc2)sc2c1CCCC2`, the TGI in experiment [1], in experiment [2], in [3], in experiment [4], in experiment [6] and in [7] was over 100 µM throughout. Also, the TGI in [8], in experiment [9] and in experiment [10] was over 100 µM each time.
